According to US4259328A, “Morpholino pyridazinylhydrazones” (Richter Gedeon Vegyeszeti Gyar Rt, priority 1977, dated 1981):
Where two headings read alike, the source gives them in different places.

Tests used:
[1] = Acute toxicity (LD50) on mice; conditions: mouse, in vivo, po
dopamine-β-hydroxylase = molecular target: T1, dopamine-β-hydroxylase (Bos taurus, UniProt P15101); experiment: Dopamine-β-hydroxylase inhibiting activity (DBH) on bovine adrenal (gland) preparations; type: biochemical; conditions: read-out: Enzyme inhibiting activity, DBH; for inhibition at 100 µM: 10^-4 mole/liter; for inhibition at 10 µM: 10^-5 mole/liter
T1 construct: from tissue; host or cells: bovine adrenal (gland) preparations
T1 sequence (P15101 1-610): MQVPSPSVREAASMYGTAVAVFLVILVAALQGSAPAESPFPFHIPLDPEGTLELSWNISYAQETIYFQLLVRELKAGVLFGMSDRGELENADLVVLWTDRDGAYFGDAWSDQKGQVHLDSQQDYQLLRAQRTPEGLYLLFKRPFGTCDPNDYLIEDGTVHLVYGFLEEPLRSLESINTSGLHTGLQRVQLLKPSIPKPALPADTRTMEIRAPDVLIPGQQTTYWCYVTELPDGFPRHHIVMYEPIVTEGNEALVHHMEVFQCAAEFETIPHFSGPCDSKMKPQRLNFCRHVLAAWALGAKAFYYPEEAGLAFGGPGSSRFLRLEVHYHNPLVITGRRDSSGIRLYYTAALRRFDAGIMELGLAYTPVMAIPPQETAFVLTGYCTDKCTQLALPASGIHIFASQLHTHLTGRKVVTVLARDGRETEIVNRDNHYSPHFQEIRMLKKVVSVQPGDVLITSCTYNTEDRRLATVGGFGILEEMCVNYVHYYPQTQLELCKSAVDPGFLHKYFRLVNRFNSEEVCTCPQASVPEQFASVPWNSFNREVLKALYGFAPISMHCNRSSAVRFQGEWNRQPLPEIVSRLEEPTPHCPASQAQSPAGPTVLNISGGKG
Description: Dopamine-β-hydroxylase inhibiting activity (DBH inhibiting activity) of the compounds according to the invention was tested on bovine adrenal (gland) preparations by a modified version of Nagatsu's method [B.B. Acta, 139 319 (1967)].
(§1) Inhibiting effect of several compounds encompassed by the formula I in comparison with some known compounds is listed in the following Table I.

tyrosine-hydroxylase = molecular target: T2, tyrosine-hydroxylase (Rattus norvegicus, UniProt P04177); experiment: In vitro tyrosine-hydroxylase inhibiting activity (TH) on rat adrenal homogenate; type: biochemical; conditions: read-out: Enzyme inhibiting activity, TH; for inhibition at 100 µM: 10^-4 mole/liter; for inhibition at 10 µM: 10^-5 mole/liter
T2 construct: on rat adrenal homogenate; from tissue; host or cells: rat adrenal homogenate
T2 sequence (P04177 whole entry): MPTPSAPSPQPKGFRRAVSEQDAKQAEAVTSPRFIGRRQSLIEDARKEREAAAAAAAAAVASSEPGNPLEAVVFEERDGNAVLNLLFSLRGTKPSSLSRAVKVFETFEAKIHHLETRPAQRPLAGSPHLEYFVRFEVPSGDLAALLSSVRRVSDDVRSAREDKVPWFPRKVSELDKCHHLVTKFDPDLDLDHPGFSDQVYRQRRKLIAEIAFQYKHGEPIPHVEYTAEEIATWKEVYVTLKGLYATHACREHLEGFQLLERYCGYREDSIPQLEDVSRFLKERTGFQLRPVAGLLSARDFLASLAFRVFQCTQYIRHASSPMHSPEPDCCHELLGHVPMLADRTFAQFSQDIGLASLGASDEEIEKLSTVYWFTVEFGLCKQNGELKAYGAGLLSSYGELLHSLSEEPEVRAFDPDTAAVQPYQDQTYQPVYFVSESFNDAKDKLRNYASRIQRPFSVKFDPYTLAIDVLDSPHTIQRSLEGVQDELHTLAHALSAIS
Description: In vitro tyrosine-hydroxylase inhibiting activity (TH inhibiting activity) of the new compounds according to the invention was tested by the method of Nagatsu [Anal. Biochem., 9, 122 (1964)] on rat adrenal homogenate. Radioactive tyrosine was purified by the method elaborated by Ikeda [J. Biol. Chem., 241, 4452 (1966)]. TH activity of the rat adrenal homogenate amounted to […] nmoles/mg protein/60 min.
as §1

[2] = test system: spontaneous hypertensive rats (Wistar-Okamoto rats); experiment: Blood pressure lowering activity, systolic blood pressure of waking spontaneous hypertensive rats, oral; type: in vivo, rat; conditions: for change in vivo at 50 mg/kg / change in vivo at 1.25 mg/kg: Rattus norvegicus, read-out: Reduction in blood pressure; for change in vivo at 50 mg/kg / Reduction in blood pressure / change in vivo at 1.25 mg/kg: oral; for significant blood pressure lowering activity: ≥-15%; for change in vivo at 50 mg/kg / Reduction in blood pressure: 50 mg/kg
Description: Blood pressure lowering activity of the new compounds according to the invention was tested on spontaneous hypertensive rats (Wistar-Okamoto rats) following the method described in Arzn. Forsch., 6, 222 (1956). Systolic blood pressure of waking animals was measured in arteria caudalis 4, 24, 48 and 72 hours after the oral administration of the test compounds.

mice = experiment: Acute toxicity (LD50) on mice; conditions: i.p.

Row | Compound | LD50 [1] [mg/kg] | inhibition at 100 µM (dopamine-β-hydroxylase) [%] | inhibition at 10 µM (dopamine-β-hydroxylase) [%] | inhibition at 100 µM (tyrosine-hydroxylase) [%] | inhibition at 10 µM (tyrosine-hydroxylase) [%] | change in vivo at 50 mg/kg ([2]; 4 hours) [%] | change in vivo at 50 mg/kg ([2]; 24 hours) [%] | significant blood pressure lowering activity [2] [%] | Acute toxicity [LD50] on mice (mice) [mg/kg] | Reduction in blood pressure ([2]; 4 hours) [%] | Reduction in blood pressure ([2]; 24 hours) [%] | change in vivo at 1.25 mg/kg ([2]; 4 hours) [%] | change in vivo at 1.25 mg/kg ([2]; 24 hours) [%] | duration of blood pressure lowering effect ([2]; dose 20 mg/kg) [h] | duration of blood pressure lowering effect ([2]; dose of 50 mg/kg) [h]
1 | COC(=O)CC(=NNc1ccc(Cl)nn1)C(=O)OC [Example 64, 1,2-di-(methoxycarbonyl)-ethylidene-(3-chloro-6-pyridazinyl)hydrazone] | > 200 | 50 | 0 | 36 | 10 | -25 | -11 | ≥ -15 |  |  |  |  |  |  | 
2 | CCCOC(=O)CC(C)=NNc1ccc(Cl)nn1 [Example 28, 3-(Propoxycarbonyl)-2-propylidene-3-chloro-6-pyridazinylhydrazone] | > 200 | 90 | 71 | 0 | 0 | -29 | -25 | ≥ -15 |  |  |  |  |  |  | 
3 | CCOC(=O)CC(C)=NNc1ccc(Cl)nn1 [Example 20, 3-(Ethoxycarbonyl)-2-propylidene-(3-chloro-6-pyridazinyl)hydrazone] | 530 | 100 | 87 | 100 | 50 | -25 | -25 | ≥ -15 |  |  |  |  |  |  | 
4 | Fumaric acid [reference compound] |  |  |  |  |  |  |  |  | 80 | -33 | 0 |  |  |  | 
5 | O=C(O)C1CCCCC1=NNc1cccnn1 (stereo not shown) [Example 19, 2-carboxy-1-cyclohexylidene-3-pyridazinylhydrazone] | > 200 | 75 | 10 | 82 | 30 | -8 | -9 |  |  |  |  |  |  |  | 
6 | CC(CC(=O)OC(C)(C)C)=NNc1ccc(N2CCOCC2)nn1 [Example 52, 3-(tert.-Butoxycarbonyl)-2-propylidene-3-morpholino-6-pyridazinylhydrazone] | 400 | 30 | 0 | 65 | 40 |  |  | ≥ -15 |  |  |  | -21 | -9 |  | 
7 | CC(CC(=O)OC(C)C)=NNc1ccc(Cl)nn1 [Example 29, 3-(Isopropoxycarbonyl)-2-propylidene-3-chloro-6-pyridazinylhydrazone] | 250 | 70 | 47 | 50 | 0 | -30 | -15 | ≥ -15 |  |  |  |  |  | 48 | 72
8 | CC(CC(=O)OC(C)(C)C)=NNc1ccc(Cl)nn1 [Example 30, 3-(tert.-Butoxycarbonyl)-2-propylidene-3-chloro-6-pyridazinylhydrazone] | 250 | 70 | 22 | 50 | 0 | -31 | -14 | ≥ -15 |  |  |  |  |  | 48 | 72
9 | CCOC(=O)C1CCCCC1=NNc1ccc(Cl)nn1 (stereo not shown) [Example 17, 2-(Ethoxycarbonyl)-1-cyclohexylidene-3-chloro-6-pyridazinylhydrazone] | 300 | 70 | 10 | 85 | 33 | -23 | -13 | ≥ -15 |  |  |  |  |  |  | 
10 | COC(=O)CCC(C)=NNc1ccc(Cl)nn1 [Example 23] | 200 | 70 | 50 |  |  | -21 | -8 | ≥ -15 |  |  |  |  |  |  | 
